Assay results from patent publication US20050181516A1, “Bioequivalence determination using expression profiling” (priority 2002, published 2005).
“Also recorded” adds a separate entry of the source.

Tested on: gene expression (mRNA) in peripheral blood (lymphocytes)
Assay: Gene expression profiling (Affymetrix DNA microarrays) of blood samples of psoriatic patients before and after oral ASM981
Assay type: in vivo, human
Details: for Mean fold variation: day 13/14 vs baseline
Description: The dose used was 60 mg/day, given as 30 mg twice a day (b.i.d.). To make this dose the […] tablets were cut in half using a special cutter (Tablettenteiler NR.96) so as to obtain 30 mg of ASM981 or a matched amount of placebo.
ASM981 was evaluated as treatment for psoriasis using an oral dose of 60 mg (30 mg b.i.d) during a 4 weeks clinical study. The oral formulation used was a highly standardized oral dosage form that could be produced in large amounts and with a highly uniform composition, this was oral formulation A.
The cohort included 10 patients; 8 received oral formulation A and 2 received a placebo. Blood samples were collected before the first administration to establish the gene expression baseline and on days 13 or 14 after treatment with ASM981 or placebo and submitted to gene expression analysis in order to gain insights into the mechanisms of action of the compound.
The RNA from each of the blood samples was extracted and tested on individual DNA microarrays, thus allowing, for each patient, a comparison of gene expression before and after ASM981 treatment. […] Genes that were consistently modulated, i.e., change greater then a factor of two, were sorted in functional categories. Table 4 lists all the identified genes with their symbol, Unigene cluster number, protein accession number and the GenBank accession number for the sequence used to design the Affymetrix probes.
The extraction of the RNA from the samples, the preparation of the target, the hybridization and the analysis of the arrays, were performed according to the methods and protocols recommended by Affymetrix. Total RNA was extracted from the blood samples (lymphocytes) collected on days 0 and 14 using TRIZOL™ (Life Technologies), and purified through RNEASY™ columns (Qiagen) as needed. Good quality total RNA ([…]) was used to synthesize double-stranded cDNA using the SUPERSCRIPT CHOICE SYSTEM™ (Life Technologies). The cDNA was then in vitro transcribed (MEGASCRIPT™ T7 Kit, Ambion) to form biotin-labeled cRNA. The quality of the cRNA was checked on a test array according to the recommendation of Affymetrix. Next, […] of labeled cRNA were hybridized to the probe arrays for 16 hours at 45° C. Arrays were then washed according to the EukGE-WS2 protocol (Affymetrix), and stained with […] of streptavidin-phycoerythrin conjugate (Molecular Probes). The signal was antibody amplified with 2 mg/mL acetylated BSA (Life Technologies), 100 mM MES, 1 M [Na+], 0.05% Tween 20, 0.005% Antiofoam (Sigma), 0.1 mg/mL goat IgG and 0.5 mg/mL biotinylated antibody and re-stained with the streptavidin solution. After washing, the arrays were scanned twice with the GENE ARRAY® scanner (Affymetrix).
The data were analyzed comparing, for each individual patient, the gene expression levels before and after treatment. Only genes that were consistently modulated in at least 5 patients were considered as relevant. These variations were also compared with the gene expression changes observed in the placebo treated patients. During analysis, one chip (patient 44 before treatment) appeared to have very few correctly hybridized genes, and to introduce a bias into the analysis. This pair was excluded to establish average fold change.

With CC[C@@H]1/C=C(\C)C[C@H](C)C[C@H](OC)[C@H]2O[C@@](O)(C(=O)C(=O)N3CCCC[C@H]3C(=O)O[C@H](/C(C)=C/[C@@H]3CC[C@H](Cl)[C@H](OC)C3)[C@H](C)[C@@H](O)CC1=O)[C@H](C)C[C@@H]2OC [ASM981, 33-Epichloro-33-desoxy-ascomycin] the Mean fold variation (4-1BB ligand (TNFSF9) mRNA, blood) was “+2.3 fold”, the Mean fold variation (ADP/ATP translocase (SLC25A6) mRNA, blood) was −3.7 fold and the Mean fold variation (ALu RNA binding protein (SRP14) mRNA, blood) was −2.9 fold. The Mean fold variation (B7 protein (B7) mRNA, blood) was “+2.9 fold”, the Mean fold variation (BAP 31 (DXS1357E) mRNA, blood) was −9.2 fold and the Mean fold variation (BRCA2 (gene symbol ARPC2) mRNA, blood) was −6.5 fold. The Mean fold variation (Butyrophilin BTF5 (BTN3A1) mRNA, blood) was −10.6 fold, the Mean fold variation (CAMLG (calcium modulating cyclophilin ligand) mRNA, blood) was −5.2 fold and the Mean fold variation (CAPL/S100A4 mRNA, blood) was −37.8 fold. For the same compound, the Mean fold variation (CDC10 homologue (CDC10) mRNA, blood) was −6 fold, the Mean fold variation (COX6B mRNA, blood) was −13.6 fold and the Mean fold variation (CSF-1 (CSF1) mRNA, blood) was “+3.1 fold”. For the same compound, the Mean fold variation (Calmodulin (CALM2) mRNA, blood) was −28.8 fold, the Mean fold variation (Clone × 101 (MAP1A) mRNA, blood) was “+2.2 fold” and the Mean fold variation (Cyclin D2 (CCND2) mRNA, blood) was −16.6 fold. It also gave a Mean fold variation (Cyclin D3 (CCND3) mRNA, blood) of −7.2 fold, a Mean fold variation (Cystatin A (CSTA) mRNA, blood) of −2.4 fold and a Mean fold variation (Cystatin C (CST3) mRNA, blood) of −25 fold. The Mean fold variation (Cytochrome c oxidase subunit IV (COX4) mRNA, blood) was −15.8 fold, the Mean fold variation (Cytochrome c oxidase subunit VIc (COX6C) mRNA, blood) was −21.1 fold and the Mean fold variation (DARC (FY) mRNA, blood) was “+7 fold”. For the same compound, the Mean fold variation (EF-1, Elongation factor 1 delta (EEF1D) mRNA, blood) was −12.4 fold, the Mean fold variation (Epididymal secretory protein mRNA, blood) was −19.6 fold and the Mean fold variation (FC-epsilon binding protein Galectin 3 (LGALS3) mRNA, blood) was −21 fold. It also gave a Mean fold variation (Farnesyl transferase (FNTA) mRNA, blood) of −9 fold, a Mean fold variation (Ferritin (FTL) mRNA, blood) of −4.4 fold and a Mean fold variation (G gamma 11 (GNG11) mRNA, blood) of −6.2 fold. For the same compound, the Mean fold variation (GPR-9 CCR9 mRNA, blood) was “+3.4 fold”, the Mean fold variation (Gamma actin (ACTG1) mRNA, blood) was −3.4 fold and the Mean fold variation (Glutamine synthase (GLUL) mRNA, blood) was −2.6 fold. It also gave a Mean fold variation (Glutathione peroxidase mRNA, blood) of −5.4 fold, a Mean fold variation (HLA-DR (HLA-DRA) mRNA, blood) of −3.2 fold and a Mean fold variation (HLA-E mRNA, first of 2 sequences, blood) of −23.4 fold. For the same compound, the Mean fold variation (HLA-E mRNA, second of 2 sequences, blood) was −4.2 fold, the Mean fold variation (HLA-F mRNA, blood) was −10.2 fold and the Mean fold variation (HLA-I A 26 (HLA-A) mRNA, blood) was −4.1 fold. For the same compound, the Mean fold variation (HLA-I C (HLA-C) mRNA, blood) was −2.9 fold, the Mean fold variation (HLH G0S8 (RGS2) mRNA, blood) was −10.8 fold and the Mean fold variation (HMG-17 (HMG17) mRNA, blood) was −15.5 fold. The Mean fold variation (Histone H2 (H2AFL) mRNA, blood) was −42.6 fold, the Mean fold variation (Histone H3.3 (H3F3A) mRNA, blood) was −6.6 fold and the Mean fold variation (Ii Invariant chain, CD74 mRNA, blood) was −46.4 fold. For the same compound, the Mean fold variation (KIAA0 151 (IKKE) mRNA, blood) was “+2.5 fold”, the Mean fold variation (KIAA0055 (USP8) mRNA, blood) was “+3.7 fold” and the Mean fold variation (Kallistatin mRNA, blood) was “+3.3 fold”. It also gave a Mean fold variation (L-selectin (SELL) mRNA, blood) of −46.6 fold, a Mean fold variation (LAMP-1 (LAMP1) mRNA, blood) of −19.1 fold and a Mean fold variation (LAPT5 Lysosomal associated protein (LAPTM5) mRNA, blood) of −12.5 fold. For the same compound, the Mean fold variation (LFA1a (ITGAL) mRNA, blood) was −16.1 fold, the Mean fold variation (LFA1b (ITGB2) mRNA, blood) was −8.3 fold and the Mean fold variation (Lactate dehydrogenase (LDHB) mRNA, blood) was −17.1 fold. For the same compound, the Mean fold variation (Laminin receptor (LAMR1) mRNA, blood) was −7.3 fold, the Mean fold variation (Leukotriene A4 hydrolase (LTA4H) mRNA, blood) was −8 fold and the Mean fold variation (Lone HH109 mRNA, blood) was “+2 fold”. For the same compound, the Mean fold variation (MIC-2 CD99 (MIC2) mRNA, blood) was −65 fold, the Mean fold variation (MTf1 Mitochondrial transcription factor (TFAM) mRNA, blood) was “+3.2 fold” and the Mean fold variation (Macrophilin 12 FKBP (FKBP1A) mRNA, blood) was −66.2 fold. For the same compound, the Mean fold variation (Mitochondrial ubiquinone binding protein (first entry, M26730) mRNA, blood) was −5.4 fold, the Mean fold variation (Mitochondrial ubiquinone binding protein (second entry of Table 11) mRNA, blood) was “+6.6 fold” and the Mean fold variation (Myosin light chain non muscle type mRNA, blood) was −15.6 fold. For the same compound, the Mean fold variation (Myosin regulatory light chain (MLCB) mRNA, blood) was −8.5 fold, the Mean fold variation (NRGN Neuragranin mRNA, blood) was −3.1 fold and the Mean fold variation (Neutrophil cytochrome b light chain (CYBA) mRNA, blood) was −34.7 fold. The Mean fold variation (Non muscle-type cofilin (CFL1) mRNA, blood) was −2.9 fold, the Mean fold variation (Nuclear factor Nf-IL6 (CEBPB) mRNA, blood) was −6.8 fold and the Mean fold variation (Nucleosome assembly protein (NAP1L1) mRNA, blood) was −7.7 fold. It also gave a Mean fold variation (PF-4 (PF4V1) mRNA, blood) of −5.2 fold, a Mean fold variation (Platelet glycoprotein IIb (ITGA2B) mRNA, blood) of −5.2 fold and a Mean fold variation (Platelet glycoprotein Ib mRNA, blood) of −26.6 fold. The Mean fold variation (Prosaposin (PSAP) mRNA, blood) was −56.1 fold, the Mean fold variation (Prostaglandin endoperoxide synthase 1 (PTGS1) mRNA, blood) was −45.9 fold and the Mean fold variation (Proteoglycan core protein (PRG1) mRNA, blood) was “+49 fold”. For the same compound, the Mean fold variation (Prothymosin alpha (PTMA) mRNA, blood) was −71.7 fold, the Mean fold variation (Pyrroline5 carboxylate reductase (PYCR1) mRNA, blood) was “+34 fold” and the Mean fold variation (RANTES (SCYA5) mRNA, blood) was −5.3 fold. The Mean fold variation (RSU (RSU1) mRNA, blood) was −7.2 fold, the Mean fold variation (Ribosomal protein L 12 (RPL12) mRNA, blood) was −4.8 fold and the Mean fold variation (Ribosomal protein S 7 (RPS7) mRNA, blood) was −6.4 fold. For the same compound, the Mean fold variation (SABP1 (elk4) (ELK4) mRNA, blood) was “+6.4 fold”, the Mean fold variation (Scaffold attachment protein (HNRPU) mRNA, blood) was −7.1 fold and the Mean fold variation (Selectin P ligand SELPLG mRNA, blood) was −17.1 fold. For the same compound, the Mean fold variation (Serine Threonine phosphatase (PPP2R1B) mRNA, blood) was “+5.1 fold”, the Mean fold variation (Single stranded DNA binding (SSBP) mRNA, blood) was −8.5 fold and the Mean fold variation (Small nuclear ribonucleoprotein (SNRPN) mRNA, blood) was −2 fold. For the same compound, the Mean fold variation (TAX REB 67 (ATF4) mRNA, blood) was −22.6 fold, the Mean fold variation (TF lia transcription factor mRNA, blood) was −16.4 fold and the Mean fold variation (TRMP2 Apolipoprotein J mRNA, blood) was −6.8 fold. For the same compound, the Mean fold variation (Taurine transporter (SLC6A6) mRNA, blood) was “+4.4 fold”, the Mean fold variation (Thioredoxin binding protein/Vit. D3 Up regulated protein (VDUP1) mRNA, blood) was −5.4 fold and the Mean fold variation (Thromboxane A2 receptor (TBXA2R) mRNA, blood) was −9.3 fold. It also gave a Mean fold variation (Thymosin beta (TMSB10) mRNA, blood) of −7.5 fold, a Mean fold variation (Transaldolase mRNA, blood) of −3.1 fold and a Mean fold variation (Translationally controlled tumor protein (TPT1) mRNA, blood) of −3.2 fold. For the same compound, the Mean fold variation (Tyrosine phosphatase (huPP1) (PTP4A2) mRNA, blood) was −5.7 fold, the Mean fold variation (Ubiquitin like protein (UBL4) mRNA, blood) was −21.5 fold and the Mean fold variation (Vacuolar H + ATPase (ATP6N1A) mRNA, blood) was “+1.8 fold”. For the same compound, the Mean fold variation (Vimentin (VIM) mRNA, blood) was −7 fold, the Mean fold variation (Wilms tumor related protein mRNA, blood) was −4 fold and the Mean fold variation (Zinc finger protein ZNF141 mRNA, blood) was “+3.2 fold”. The “CD8+ T lymphocytes in the blood” value (after treatment) was “slightly more represented”, the “proportion of T cell expressing CD3 in the blood” value (after treatment) was “does not affect” and the “expression of genes of the Macrolactam target pathway (Macrophilin 12), cellular activation and proliferation (Histone2, Histone 3.3, cyclin D2)” value (among blood cells) was “down regulate”. For the same compound, the “FKBP12 at the level of RNA synthesis” value (blood) was “strongly down regulated”, the Kallistatin expression (blood) was “up-regulated” and the “expression of inflammatory mediators (Leukotriene A4 hydrolase, Prostaglandin endoperoxide synthase)” value (blood cells) was “strongly down regulate”. For the same compound, the “genes involved in asthma physiopathology (RANTES, GALECTIN-3, Thromboxane A2 receptor)” value (blood cells) was “markedly down regulated”, the “genes necessary for chemotaxis and cellular migration, including LFA-1, P-Selectin ligand and L-Selectin” value (blood cells) was “dramatic down regulation” and the CD3 expression level (blood, after treatment) was “unchanged”. The “granzyme A and B expression” value (blood, after treatment) was “increase”, the “genes involved in any known adverse side effect or toxicity pathway” value (expression profile, blood) was “no consistent pattern of alteration; also recorded: No gene linked to a possible adverse effect or to a toxicity pathway was found to be regulated” and the “toxic effect in the expression profile” value (expression profile, blood) was “No obvious toxic effect”. The Mean fold variation (pM5 (PM5) mRNA, blood) was −5.7 fold.
